Assay [1] concerns the target T1, ASIC1a (Homo sapiens, UniProt P78348).
T1 construct: host or cells: HEK293
T1 sequence (P78348 1-528): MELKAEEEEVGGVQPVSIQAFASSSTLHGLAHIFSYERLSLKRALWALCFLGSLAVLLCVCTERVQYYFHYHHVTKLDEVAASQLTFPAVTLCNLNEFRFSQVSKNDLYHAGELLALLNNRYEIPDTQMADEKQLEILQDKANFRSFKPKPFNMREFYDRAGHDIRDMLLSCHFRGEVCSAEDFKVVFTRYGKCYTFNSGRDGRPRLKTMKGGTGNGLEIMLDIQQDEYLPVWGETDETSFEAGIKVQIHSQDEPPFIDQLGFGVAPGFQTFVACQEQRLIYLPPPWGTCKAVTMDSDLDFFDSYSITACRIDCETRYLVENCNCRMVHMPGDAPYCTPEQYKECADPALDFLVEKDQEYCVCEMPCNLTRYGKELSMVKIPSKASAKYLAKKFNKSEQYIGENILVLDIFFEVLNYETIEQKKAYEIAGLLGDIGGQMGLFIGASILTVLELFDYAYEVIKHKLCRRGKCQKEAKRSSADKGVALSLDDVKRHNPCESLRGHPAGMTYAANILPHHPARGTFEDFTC
Nature of the assay: FLIPR calcium assay (MES-induced calcium response), ASIC1a expressing HEK293 cells. It counts as cell-based. Conditions: HEK293; at 1 μM, HEK cells, FLIPR. The protocol: ASIC1a expressing HEK293 cells are grown in culture medium (DMEM with 10% FBS), in polystyrene culture flasks ([…]) at 37° C. in a humidified atmosphere of 5% CO2. Confluency of cells should be 80-90% on day of plating. Cells are rinsed with 10 ml of PBS and cells are re-suspended by addition of culture medium and trituration with a 25 ml pipette.
The cells are seeded at a density of approximately 1×10^6 cells/ml (100 μl/well) in black-walled, clear bottom, 96-well plates pre-treated with 10 mg/l poly-D-lysin (75 μl/well for ≧30 min). Plated cells were allowed to proliferate for 24 h before loading with dye.
Fluo-4/AM (1 mg, Molecular Probes) is added 912 μl DMSO. The Fluo-4/AM stock solution (1 mM) is diluted with culture medium to a final concentration of 2 μM.
The culture medium is aspirated from the wells, and 50 μl of the Fluo-4/AM loading solution is added to each well. The cells are incubated at 37° C. for 30 min.
After the loading period, the loading solution is aspirated and the cells are washed twice with 100 μl modified FLIPR medium (145 mM NaCl, 5 mM KCl, 5 mM CaCl2, 1 mM MgCl2, 10 mM HEPES, pH 7.4) to remove extracellular dye. Following the second wash, 100 μl modified FLIPR medium is added to each well and the fluorescence is measured in FLIPR.
Temperature: Room temperature (20-22° C.)
First addition: 50 μl test solution at a rate of 30 μl/sec and a starting height of […]
Second addition: 50 μl MES solution (20 mM, 5 mM final concentration) at a rate of 35 μl/sec and a starting height of 150 μl.
Reading intervals: pre-incubation—10 sec×7 and 3 sec×3 antagonist phase—3 sec×17 and 10 sec×12
Addition plates (compound test plate and MES plate) are placed on the right and left positions in the FLIPR tray, respectively. Cell plates are placed in the middle position and the ASIC1a program is effectuated. FLIPR will then take the appropriate measurements in accordance with the interval settings above. Fluorescence obtained after stimulation is corrected for the mean basal fluorescence (in modified FLIPR medium). […]

Assay [2] deals with T2, ASIC3 (Rattus norvegicus, UniProt O35240).
T2 construct: expressed in transfected cells
T2 sequence (O35240 1-533): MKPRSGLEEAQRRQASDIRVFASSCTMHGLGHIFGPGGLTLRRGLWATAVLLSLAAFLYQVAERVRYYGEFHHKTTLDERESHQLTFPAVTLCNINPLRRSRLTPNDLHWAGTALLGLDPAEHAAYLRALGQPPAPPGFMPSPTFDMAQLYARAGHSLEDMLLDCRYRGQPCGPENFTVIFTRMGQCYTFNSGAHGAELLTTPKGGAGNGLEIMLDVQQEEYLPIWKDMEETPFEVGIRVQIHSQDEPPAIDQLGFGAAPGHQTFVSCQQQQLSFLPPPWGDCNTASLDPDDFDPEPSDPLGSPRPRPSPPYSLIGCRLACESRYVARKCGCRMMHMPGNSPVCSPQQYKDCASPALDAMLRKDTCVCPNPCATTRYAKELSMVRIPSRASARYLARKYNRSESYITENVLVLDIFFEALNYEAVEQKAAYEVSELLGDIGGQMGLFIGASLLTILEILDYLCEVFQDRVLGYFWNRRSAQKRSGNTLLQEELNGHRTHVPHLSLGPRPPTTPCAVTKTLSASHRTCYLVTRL
As to the kind of experiment: whole cell patch clamp electrophysiology, ASIC3. It counts as cell-based. The settings on record: 1 μM compound; pH 6.5 and pH 5.0; compared with the corresponding 5-vinyl esters. The protocol: (§1) Another example of an in vitro assessment method consists of using mammalian heterologous expression systems, which are known to the skilled in the art, and include a variety of mammalian cell lines such as COS, HEK, e.g., HEK293and/or CHO, cells. Cell lines are transfected with gated ion channel(s) and used to perform electrophysiology as follows:
(§2) All experiments are performed at room temperature (20-25° C.) in voltage clamp using conventional whole cell patch clamp methods (Neher, E., et al. (1978) Pfluegers Arch 375:219-228).
(§3) The amplifier used is the EPC-9 (HEKA-electronics, Lambrect, Germany) run by a Macintosh G3 computer via an ITC-16 interface. Experimental conditions are set with the Pulse-software accompanying the amplifier. Data is low pass filtered and sampled directly to hard-disk at a rate of 3 times the cut-off frequency.
(§4) Pipettes are pulled from borosilicate glass using a horizontal electrode puller (Zeitz-lnstrumente, Augsburg, Germany). The pipette resistances are 2-3 MOhms in the salt solutions used in these experiments. The pipette electrode is a chloridized silver wire, and the reference is a silver chloride pellet electrode (In Vivo Metric, Healdsburg, USA) fixed to the experimental chamber. The electrodes are zeroed with the open pipette in the bath just prior to sealing.
Coverslips with the cells are transferred to a 15 μl experimental chamber mounted on the stage of an inverted microscope (IMT-2, Olympus) supplied with Nomarski optics. Cells are continuously superfused with extracellular saline at a rate of 2.5 ml/min. After giga-seal formation, the whole cell configuration is attained by suction. The cells are held at a holding voltage of −60 mV and at the start of each experiment the current is continuously measured for 45 s to ensure a stable baseline. Solutions of low pH (<7) are delivered to the chamber through a custom-made gravity-driven flowpipe, the tip of which is placed approximately 50 μm from the cell. Application is triggered when the tubing connected to the flowpipe is compressed by a valve controlled by the Pulse-software. Initially, low pH (in general, pH 6.5) is applied for 1 s every 45 s. The sample interval during application is 550 μs. After stable responses are obtained, the extracellular saline as well as the low-pH solution are switched to solutions containing the compound to be tested. The compound is present until responses of a repeatable amplitude are achieved. Current amplitudes are measured at the peak of the responses, and effect of the compounds is calculated as the amplitude at compound equilibrium divided by the amplitude of the current evoked by the pulse just before the compound was included. […]

In assay [3] the target is T3, ASIC1a (Rattus norvegicus, UniProt P55926).
T3 construct: expressed in transfected cells; host or cells: HEK cells according to b213
T3 sequence (P55926 1-526): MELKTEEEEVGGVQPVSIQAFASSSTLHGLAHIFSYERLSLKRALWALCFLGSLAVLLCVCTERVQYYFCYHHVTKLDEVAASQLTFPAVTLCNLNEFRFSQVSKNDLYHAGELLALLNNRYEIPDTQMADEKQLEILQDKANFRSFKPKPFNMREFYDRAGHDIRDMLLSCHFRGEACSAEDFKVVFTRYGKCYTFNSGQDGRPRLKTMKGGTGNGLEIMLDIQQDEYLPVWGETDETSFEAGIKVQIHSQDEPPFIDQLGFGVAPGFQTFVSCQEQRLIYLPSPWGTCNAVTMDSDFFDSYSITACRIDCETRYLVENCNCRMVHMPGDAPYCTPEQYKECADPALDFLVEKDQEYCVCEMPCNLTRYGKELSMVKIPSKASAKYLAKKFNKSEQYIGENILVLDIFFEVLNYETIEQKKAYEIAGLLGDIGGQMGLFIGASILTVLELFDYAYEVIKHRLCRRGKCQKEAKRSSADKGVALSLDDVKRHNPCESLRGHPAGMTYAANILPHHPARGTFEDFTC
As to the kind of experiment: whole cell patch clamp electrophysiology, ASIC1a. It counts as cell-based. The settings on record: 1 μM compound; pH 6.5 and pH 5.0; compared with the corresponding 5-vinyl esters. As for the experimental part: as §1, §2, §3, §4
Coverslips with the cells are transferred to a 15 μl experimental chamber mounted on the stage of an inverted microscope (IMT-2, Olympus) supplied with Nomarski optics. Cells are continuously superfused with extracellular saline at a rate of 2.5 ml/min. After giga-seal formation, the whole cell configuration is attained by suction. The cells are held at a holding voltage of −60 mV and at the start of each experiment the current is continuously measured for 45 s to ensure a stable baseline. Solutions of low pH (<7) are delivered to the chamber through a custom-made gravity-driven flowpipe, the tip of which is placed approximately 50 μm from the cell. Application is triggered when the tubing connected to the flowpipe is compressed by a valve controlled by the Pulse-software. Initially, low pH (in general, pH 6.5) is applied for 1 s every 45 s. The sample interval during application is 550 μs. After stable responses are obtained, the extracellular saline as well as the low-pH solution are switched to solutions containing the compound to be tested. The compound is present until responses of a repeatable amplitude are achieved. Current amplitudes are measured at the peak of the responses, and effect of the compounds is calculated as the amplitude at compound equilibrium divided by the amplitude of the current evoked by the pulse just before the compound was included.
The following salt solutions are used: extracellular solution (mM): NaCl (140), KCl (4), CaCl2 (2), MgCl2 (4), HEPES (10, pH 7.4); intracellular solution (mM): KCl (120), KOH (31), MgCl2 (1.785), […] (10), HEPES (10, pH 7.2). In general, compounds for testing are dissolved in 50% DMSO at 500 fold the highest concentration used.
The cDNA for ASIC1a and ASIC3 can be cloned from rat poly(A)^+ mRNA and put into expression vectors according to Hesselager et al. (J Biol Chem. 279(12):11006-15 2004). All constructs are expressed in CHO-K1 cells (ATCC no. CCL61). CHO-K1 cells are cultured at 37° C. in a humidified atmosphere of 5% CO2 and 95% air and passaged twice every week. The cells are maintained in DMEM (10 mM HEPES, 2 mM glutamax) supplemented with 10% fetal bovine serum and 2 mM L-proline (Life Technologies). […]

Assay [4] deals with Male Sprague-Dawley rats. As to the kind of experiment: Formalin test (flinching behaviour). It counts as in vivo, rat. The settings on record: 10 mg/kg i.v. 10 min prior to formalin in the hind limb; compared with vehicle; n=8. As for the experimental part: Male Sprague-Dawley rats (body weight, 180-300 g) are housed together in groups of four animals under standard conditions with unrestricted access to food and water. Rats are housed in the room in which the testing procedure is performed to minimize any stress response to novel environmental cues. All experiments are conducted according to the ethical guidelines for investigations of experimental pain in conscious animals (Zimmerman, 1983).
Separate groups of rats are used for the different experiments such that each animal is used on one occasion only. All experiments for a given compound are performed using age matched animals in an attempt to avoid variability between experiments. Prior to initiation of the formalin test, 4 rats are habituated in separate testing cages for 15-20 min. […] On the basis of the response pattern, two distinct phases of nociceptive behavior are observed, characterized by flinching of the affected paw and scored (Blackburn-Munro et al., Eur J Pharmacol. 2002 Jun. 12;445(3):231-8). […]
All data is analysed using Sigmastat 2.03 statistical software (Jandel Scientific GmbH, Germany) and expressed as mean±S.E.M. Two Way Repeated Measures Analysis of Variance (Two Way RM ANOVA) is used to analyse formalin test data and where applicable, this is followed by post-hoc analysis using Bonferroni's t-test to allow comparisons between groups. […]

For `C=CC1CN2CCC1CC2[C@H](OC(=O)CCC1CCCC1)c1ccnc2ccccc12` (stereo partly drawn) [drawing 27], the inhibition at 1 µM in assay [1] was 30 to 45%. Consider `CCC1CN2CCC1CC2C(OC(=O)CC(C)(C)C)c1ccnc2ccc(OC)cc12` (stereo not drawn) [3,3-dimethyl-butyric acid (5-ethyl-1-aza-bicyclo[2.2.2]oct-2-yl)-(6-methoxy-quinolin-4-yl)-methyl ester], for which, in assay [2], the “difference in current between control ASICs and ASICs with compound (ASIC3)” value is “larger difference in current”. In assay [3], the “difference in current between control ASICs and ASICs with compound (ASIC1a)” value was “larger difference in current”. For the molecule `C=CC1CN2CCC1CC2[C@H](OC(=O)CCC1CCCC1)c1ccnc2ccccc12` (stereo partly drawn) [B], the “flinching behaviour in Formalin test” value in assay [4] was “attenuated flinching behaviour”. As to `CCCCC(=O)OC(c1ccnc2ccc(OC)cc12)C1CC2CCN1CC2CC` (stereo not drawn) [pentanoic acid (5-ethyl-1-aza-bicyclo[2.2.2]oct-2-yl)-(6-methoxy-quinolin-4-yl)-methyl ester], in assay [2], the “difference in current between control ASICs and ASICs with compound (ASIC3)” value is listed as “larger difference in current”. In addition, the “difference in current between control ASICs and ASICs with compound (ASIC1a)” value in assay [3] is listed as “larger difference in current”.

The values are drawn from patent US20070004680A1, “Compositions and methods for modulating gated ion channels” (PainCeptor Pharma Corporation, priority 2004, published 2007).
